Values quoted from earlier work in patent US20030096243A1, “Methods and reagents for live-cell gene expression quantification” (priority 2000, published 2003).
Ends that are not written are not given here. * marks the point of attachment. FITC = O=C1OC2(c3ccc(O)cc3Oc3cc(O)ccc32)c2ccc(NC(=S)*)cc21

Legend:
[1] = system: boxB RNA stem-loop structure
N protein = molecular target: T1, N protein (Escherichia phage lambda, UniProt P03045); conditions: native sequence GCCCUGAAAAAGGGC (SEQ ID NO: 45)
T1 sequence (P03045 1-107): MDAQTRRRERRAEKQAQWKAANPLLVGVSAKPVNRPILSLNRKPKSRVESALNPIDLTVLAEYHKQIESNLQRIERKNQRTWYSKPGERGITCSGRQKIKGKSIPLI

Substance | affinity for boxB RNA [1] | in vivo activity relative to the native boxB sequence (N protein)
N1-22: arginine-rich peptide comprising the first twenty-two amino acids of bacteriophage λ N protein ({FITC}-MDAQTRRRERRAEKQAQWKAANKG; not fully specified (residue 23); also: doubly labeled) | high affinity | 
GCCCUAGAAAAGGGC (chemistry not given here) [SEQ ID NO: 46] |  | ~90%
GCCCUAAAAAAGGGC (chemistry not given here) [SEQ ID NO: 44] |  | less than 1%
